Measurements from patent US20250368633A1, “AZEPINE FUSED RING COMPOUND AS RIPK1 INHIBITOR AND USE THEREOF” (ARTIVILA BIOPHARMA, priority 2022, published 2025).

Key:
[1] = biological target: T1, RIPK1 kinase (Homo sapiens, UniProt Q13546); assay: In vitro RIPK1 kinase activity assay (ADP-Glo), inhibition by compounds at 1 μM; assay type: biochemical; conditions: compound 1 μM; ATP 10 μM; MBP substrate 100 μg/mL; read-out: RIPK1 kinase activity inhibition rate range
T1 construct: purchased Promega VA7593
T1 sequence (Q13546 1-671): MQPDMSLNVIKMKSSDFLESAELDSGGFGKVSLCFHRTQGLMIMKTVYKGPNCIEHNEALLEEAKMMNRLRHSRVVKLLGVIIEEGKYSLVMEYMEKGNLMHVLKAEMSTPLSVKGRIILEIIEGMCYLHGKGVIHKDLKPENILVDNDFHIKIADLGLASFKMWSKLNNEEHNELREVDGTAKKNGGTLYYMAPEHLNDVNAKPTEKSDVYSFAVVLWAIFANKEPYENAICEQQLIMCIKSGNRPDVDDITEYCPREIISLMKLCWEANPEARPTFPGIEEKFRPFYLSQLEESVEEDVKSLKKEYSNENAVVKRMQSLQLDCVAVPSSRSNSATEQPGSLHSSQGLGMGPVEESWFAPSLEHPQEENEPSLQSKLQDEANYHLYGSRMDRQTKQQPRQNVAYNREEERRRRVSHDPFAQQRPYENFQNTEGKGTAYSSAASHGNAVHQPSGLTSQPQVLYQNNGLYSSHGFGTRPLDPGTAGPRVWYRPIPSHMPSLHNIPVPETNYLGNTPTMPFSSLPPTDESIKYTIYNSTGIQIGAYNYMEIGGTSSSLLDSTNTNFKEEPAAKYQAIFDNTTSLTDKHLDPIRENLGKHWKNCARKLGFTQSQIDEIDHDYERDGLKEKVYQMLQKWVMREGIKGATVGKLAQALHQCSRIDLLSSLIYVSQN
Protocol: RIPK1 kinase activity was assayed using the ADP-Glo assay and RIPK1 kinase reaction system (Promega, catalog number: VA7593). The RIPK1 kinase activity assay was performed according to the Promega kit manual.
The experimental method was briefly described as below. The concentration of RIPK1 kinase in the RIPK1 kinase reaction system was determined by kinase titration and S/B10. Compounds were diluted with 1× kinase buffer D (1% DMSO), and 1 μL of 100 μM compound DMSO stock solution was added to 19 μL 1× kinase buffer D. RIPK1 kinase was diluted with 1× kinase buffer D. 2.5×ATP/substrate was diluted with 1× kinase buffer D. The final concentration of ATP in the kinase reaction system was 10 μM, and the final concentration of MBP substrate was 100 μg/mL. 1 μL of diluted compound and 2 μL of diluted RIPK1 kinase were mixed, incubated at room temperature for 15 minutes, 2 μL of 2.5×ATP/substrate was added, mixed, and incubated at room temperature for 1 hour. 5 μL of ADP-Glo reagent was added to each well and incubated at room temperature for 1 hour. 10 μL of ADP detection reagent was added to each well and incubated at room temperature for another 0.5-1 hour. The chemiluminescent signal was read by a microplate reader and the inhibition rate of kinase activity was calculated.

[2] = test system: U937 cells; assay: Inhibition rate of compound (1 μM) on necroptosis of U937 cells (TSZ-induced, CellTiter-Glo); assay type: cell-based; conditions: TSZ (hTNF-α, SM-164, Z-VAD-FMK) 20 hours
Protocol: (§1) The biological activity of RIPK1 inhibitors was further evaluated in the inhibition of necroptosis in U937 cells. U937 cell line was purchased from Huatuo Biotechnology and stored in liquid nitrogen. U937 cells were revived before the experiment and cultured in RPMI-1640 medium (supplemented with 10% fetal bovine serum, 100 U/mL penicillin and 100 μg/mL streptomycin) at 37° C., 5% CO2. The activity was further evaluated by the cellular ATP level detected by the Promega CellTiter-Glo 2.0 Assay cell viability assay kit (Catalog No.: G9242).
The experimental method was briefly described as below. U937 cells in the logarithmic growth phase were collected by centrifugation. Cells were diluted at the density of 5×10^5 cells/mL with RPMI 1640 medium (supplemented with 10% fetal bovine serum, 100 U/mL penicillin and 100 μg/mL streptomycin). The cell suspension was added to a white sterile 384-well cell culture plate at 15 μL/well. The test compound was dissolved in DMSO to prepare a 10 mM stock solution and diluted to 10 μM with culture medium. At the same time, a control with the same DMSO volume was set up. Two replicates were added for each concentration. The diluted compound was added to the 384-well cell culture plate containing cells at 2.5 µL/well and incubated at 37° C., 5% CO2 for 15 minutes. Z-VAD-FMK (Biyuntian, catalog number: C1202-5 mg) was dissolved in DMSO to prepare a 20 mM stock solution. SM-164 (Biyuntian, catalog number: SC0114-10 mM) was dissolved in DMSO to prepare a 10 mM stock solution and diluted to 0.1 mM. hTNF-α (Sino Biological Inc., catalog number: 10602-HNAE) was dissolved in sterile water to 10 μg/mL. RPMI 1640 medium (supplemented with 10% fetal bovine serum, 100 U/mL penicillin and 100 μg/mL streptomycin) was used to prepare the TSZ mixture, containing 133.3 μM Z-VAD-FMK, 33.3 ng/ml hTNF-α and 0.3 μM SM-164. After 15 minutes' coculture of compounds and cells, 7.5 μL of TSZ mixture was added to each well, mixed evenly, and cultured at 37° C., 5% CO2 for 20 hours. After 20 hours, the culture plate was removed and placed at room temperature for 30 minutes. 10 μL of CellTiter-Glo reagent pre-equilibrated at room temperature was added to each well and incubated for 10 minutes from light. The chemiluminescence was read by a microplate reader. The inhibition rate was calculated as Inh %=(1−(no TSZ-TSZ & compound)/(no TSZ-TSZ))×100.

[3] = test system: U937 cells; assay: EC50 of necroptosis inhibition in U937 cells (TSZ-induced, CellTiter-Glo); assay type: cell-based; conditions: Homo sapiens, U-937; TSZ (hTNF-α, SM-164, Z-VAD-FMK) 20 hours; 10 concentration points; read-out: EC50 intervals of necroptosis inhibition in U937 cells
Protocol: as §1
The experimental method was briefly described as below. U937 cells in the logarithmic growth phase were collected by centrifugation. Cells were diluted to the cell density of 5×10^5 cells/mL with RPMI 1640 medium (supplemented with 10% fetal bovine serum, 100 U/mL penicillin and 100 μg/mL streptomycin). Cell suspension was added to a white sterile 384-well cell culture plate at 15 μL/well. The test compound was dissolved in DMSO to prepare a 10 mM stock solution. The compound was serially diluted with culture medium at a ratio of 1:3, for a total of 10 concentration points. A control with the same DMSO volume was set, with two replicates for each concentration. The diluted compound was added to the 384-well cell culture plate containing cells at 2.5 μL/well and incubated at 37° C., 5% CO2 for 15 minutes. Z-VAD-FMK (Biyuntian, catalog number: C1202-5 mg) was dissolved in DMSO to prepare a 20 mM stock solution. SM-164 (Biyuntian, catalog number: SC0114-10 mM) was dissolved in DMSO to prepare a 10 mM stock solution and diluted to 0.1 mM. hTNF-α (Sino Biological Inc., catalog number: 10602-HNAE) was dissolved in sterile water to 10 μg/mL. RPMI 1640 medium (supplemented with 10% fetal bovine serum, 100 U/mL penicillin and 100 μg/mL streptomycin) was used to prepare the TSZ mixture, containing 133.3 μM Z-VAD-FMK, 33.3 ng/ml hTNF-α and 0.3 μM SM-164. After 15 minutes' coculture of compounds and cells, 7.5 μL of TSZ mixture was added to each well, mixed evenly, and cultured at 37° C., 5% CO2 for 20 hours. After 20 hours, the culture plate was removed and placed at room temperature for 30 minutes. Then, 10 μL of CellTiter-Glo reagent pre-equilibrated at room temperature was added to each well and incubated. After 10 minutes' incubation at room temperature in the dark, the chemiluminescence were measured using a microplate reader. The inhibition rate was calculated as Inh %=(1−(no TSZ-TSZ & compound)/(no TSZ-TSZ))×100. The EC50 was obtained by fitting the nonlinear regression curve log [inhibitor] vs. response−variable slope (four parameters) in GraphPad Prism.

Row | Structure (SMILES) | inhibition at 1 µM [1] [%] | Inhibition rate range of compounds (1 μM) on U937 cell necroptosis [2] | EC50 [3] [nM]
1 | C#CCOc1ccc2c(c1)N(C)C(=O)[C@@H](NC(=O)C(=O)NCCc1ccccc1)CO2 [Example 10, (S)—N^1-(5-methyl-4-oxo-7-(prop-2-yn-1-yloxy)-2,3,4,5-tetrahydrobenzo[b][1,4]oxazepin-3-yl)-N^2-phenethyloxalamide] | ≥ 75 | A (A: ≥90%) | 100 to 500
2 | Cc1cccc(/C=C/c2ccc3c(c2)N(C)C(=O)[C@@H](NC(=O)C(=O)NCCc2ccccc2)CO3)c1 [Example 11, (S,E)-N^1-(5-methyl-7-(3-methylstyryl)-4-oxo-2,3,4,5-tetrahydrobenzo[b][1,4]oxazepin-3-yl)-N^2-phenethyloxalamide] | ≥ 75 | A (A: ≥90%) | < 100
3 | CN1C(=O)[C@@H](NC(=O)C(=O)NCCc2ccccc2)COc2ccc(C#Cc3ccncc3)cc21 [Example 12, (S)-N^1-(5-methyl-4-oxo-7-(pyridin-4-ylethynyl)-2,3,4,5-tetrahydrobenzo[b][1,4]oxazepin-3-yl)-N^2-phenethyloxalamide] | ≥ 75 | A (A: ≥90%) | < 100
4 | CN1C(=O)[C@@H](NC(=O)C(=O)NCCc2ccccc2)COc2ccc(C#Cc3ccccn3)cc21 [Example 14, (S)—N^1-(5-methyl-4-oxo-7-(pyridin-2-ylethynyl)-2,3,4,5-tetrahydrobenzo[b][1,4]oxazepin-3-yl)-N^2-phenethyloxalamide] | ≥ 75 | A (A: ≥90%) | < 100
5 | CN1C(=O)[C@@H](NC(=O)C(=O)NCCc2ccccc2)COc2ccc(C#Cc3cncnc3)cc21 [Example 15, (S)—N^1-(5-methyl-4-oxo-7-(pyrimidin-5-ylethynyl)-2,3,4,5-tetrahydrobenzo[b][1,4]oxazepin-3-yl)-N^2-phenethyloxalamide] | ≥ 75 | A (A: ≥90%) | < 100
6 | CN1C(=O)[C@@H](NC(=O)C(=O)NCCc2ccccc2)COc2ccc(C#Cc3cccs3)cc21 [Example 16, (S)—N^1-(5-methyl-4-oxo-7-(thiophen-2-ylethynyl)-2,3,4,5-tetrahydrobenzo[b][1,4]oxazepin-3-yl)-N^2-phenethyloxalamide] | 50 to 74 | A (A: ≥90%) | < 100
7 | C#Cc1ccc2c(c1)N(C)C(=O)[C@@H](NC(=O)C(=O)NCCc1ccccc1)CO2 [Example 20, (S)—N^1-(7-ethynyl-5-methyl-4-oxo-2,3,4,5-tetrahydrobenzo[b][1,4]oxazepin-3-yl)-N^2-phenethyloxalamide] | 50 to 74 | A (A: ≥90%) | < 100
8 | CN1C(=O)[C@@H](NC(=O)C(=O)NCCc2ccccc2)COc2ccc(C#CC3CCNCC3)cc21 [Example 23, (S)—N^1-(5-methyl-4-oxo-7-(piperidin-4-ylethynyl)-2,3,4,5-tetrahydrobenzo[b][1,4]oxazepin-3-yl)-N^2-phenethyloxalamide] | 50 to 74 | A (A: ≥90%) | < 100
9 | CN1C(=O)[C@@H](NC(=O)C(=O)NCCc2ccccc2)COc2ccc(C#CC3=CCCCC3)cc21 [Example 26, (S)—N^1-(7-(cyclohex-1-en-1-ylethynyl)-5-methyl-4-oxo-2,3,4,5-tetrahydrobenzo[b][1,4]oxazepin-3-yl)-N^2-phenethyloxalamide] | ≥ 75 | A (A: ≥90%) | < 100
10 | CN1C(=O)[C@@H](NC(=O)C(=O)NCCc2ccccc2)COc2ccc(C#Cc3cc(F)cc(F)c3)cc21 [Example 27, (S)—N^1-(7-((3,5-difluorophenyl)ethynyl)-5-methyl-4-oxo-2,3,4,5-tetrahydrobenzo[b][1,4]oxazepin-3-yl)-N^2-phenethyloxalamide] | 50 to 74 | A (A: ≥90%) | < 100
11 | CN1C(=O)[C@@H](NC(=O)C(=O)NCCc2ccccc2)COc2ccc(C#CCOc3ccccc3)cc21 [Example 28, (S)—N^1-(5-methyl-4-oxo-7-(3-phenyloxyprop-1-yn-1-yl)-2,3,4,5-tetrahydrobenzo[b][1,4]oxazepin-3-yl)-N^2-phenethyloxalamide] | ≥ 75 | A (A: ≥90%) | < 100
